The values that follow come from patent US8119624B2, “Fused phenyl amido heterocyclic compounds” (Pfizer Inc., priority 2006, dated 2012).

In the test the target is T1, Full-length glucokinase (beta cell isoform) (Homo sapiens, UniProt P35557).
T1 construct: Full-length glucokinase (beta cell isoform) was His-tagged at N-terminus; His tag (N); made in house
T1 sequence (P35557 1-465): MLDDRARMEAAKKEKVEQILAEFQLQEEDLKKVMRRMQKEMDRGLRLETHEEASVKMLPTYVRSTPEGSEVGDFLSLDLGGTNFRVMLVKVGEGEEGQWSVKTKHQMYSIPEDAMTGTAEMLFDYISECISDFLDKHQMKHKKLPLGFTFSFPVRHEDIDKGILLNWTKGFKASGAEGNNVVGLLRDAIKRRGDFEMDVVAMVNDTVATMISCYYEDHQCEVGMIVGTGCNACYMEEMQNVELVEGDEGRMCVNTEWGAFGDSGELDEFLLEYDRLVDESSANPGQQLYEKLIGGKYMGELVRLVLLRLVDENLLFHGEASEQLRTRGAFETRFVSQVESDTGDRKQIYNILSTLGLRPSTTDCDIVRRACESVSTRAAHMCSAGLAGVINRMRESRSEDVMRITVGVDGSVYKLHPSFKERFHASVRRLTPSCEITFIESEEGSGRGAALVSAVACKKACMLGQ
In words: Glucokinase biochemical assay (PK/LDH-coupled, NADH depletion at 340 nm): % activation, EC50, % max activation. The following applies: 5 mM glucose; for activation at 10 µM: 10 uM compound, % Activation=(Va/Vo−1)×100, read-out: % Activation at 10 uM; for EC50: GK activation, read-out: EC50; for Emax: fitted maximum activation, read-out: % Max Activation. An outline of the steps: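 N-terminally His-tagged full-length human beta-cell glucokinase, room temperature, 5 mM glucose, 1 mM ATP, PK/LDH-coupled with 0.7 mM NADH, 1% DMSO final. Initial velocity from the 200–900 s slope of A340 decline. % activation = (Va/Vo−1)×100, measured across compound concentrations.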

What is called EC50 is the concentration giving half of the maximal effect. In the case of `CNC(=O)c1ncc(Oc2cc(C(=O)Nc3ccn(C)n3)cc3c2CC(C)(C)O3)cn1` [Example 171, 5-[2,2-Dimethyl-6-(1-methyl-1H-pyrazol-3-ylcarbamoyl)-2,3-dihydro-benzofuran-4-yloxy]-pyrimidine-2-carboxylic acid methylamide], the activation at 10 µM turned out to be 171%, the EC50 was found to be 3600 nM and the Emax amounted to 213%.
Consider `Cn1ccc(NC(=O)c2cc(Oc3cnc(C(=O)N4CCC4)nc3)c3c(c2)OC(C)(C)C3)n1` [Example 172, 4-[2-(Azetidine-1-carbonyl)-pyrimidin-5-yloxy]-2,2-dimethyl-2,3-dihydro-benzofuran-6-carboxylic acid (1-methyl-1H-pyrazol-3-yl)-amide], for which the activation at 10 µM was 186%, the EC50 came to 480 nM and the Emax worked out at 169%.
For `Cn1ccc(NC(=O)c2cc(Oc3cnc(C(=O)N4CCC4)c(F)c3)c3c(c2)OC(C)(C)C3)n1` [Example 173, 4-[6-(Azetidine-1-carbonyl)-5-fluoro-pyridin-3-yloxy]-2,2-dimethyl-2,3-dihydro-benzofuran-6-carboxylic acid (1-methyl-1H-pyrazol-3-yl)-amide] the same measures were 159%, 68 nM and 148%.
For `CCNC(=O)c1ccc(Oc2cc(C(=O)Nc3cnn(C)n3)cc3c2CC(C)(C)O3)cn1` [Example 174, 5-[2,2-Dimethyl-6-(2-methyl-2H-[1,2,3]triazol-4-ylcarbamoyl)-2,3-dihydro-benzofuran-4-yloxy]-pyridine-2-carboxylic acid ethylamide] the same measures were 238%, 840 nM and 258%.
For `CCNC(=O)c1ncc(Oc2cc(C(=O)Nc3ccn(C)n3)cc3c2CC(C)(C)O3)cc1NCC` [Example 175, 5-[2,2-Dimethyl-6-(1-methyl-1H-pyrazol-3-ylcarbamoyl)-2,3-dihydro-benzofuran-4-yloxy]-3-ethylamino-pyridine-2-carboxylic acid ethylamide], the activation at 10 µM turned out to be 233%, the 50% effective concentration (EC50) is 770 nM and the Emax came to 251%.
For `CNC(=O)c1ncc(Oc2cc(C(=O)Nc3ccn(C)n3)cc3c2CC(C)(C)O3)cc1F` [Example 176, 5-[2,2-Dimethyl-6-(1-methyl-1H-pyrazol-3-ylcarbamoyl)-2,3-dihydro-benzofuran-4-yloxy]-3-fluoro-pyridine-2-carboxylic acid methylamide] the same measures were 194%, 450 nM and 203%.
For `CCNC(=O)c1ncc(Oc2cc(C(=O)Nc3ccn(C)n3)cc3c2CC(C)(C)O3)cc1F` [Example 177, 5-[2,2-Dimethyl-6-(1-methyl-1H-pyrazol-3-ylcarbamoyl)-2,3-dihydro-benzofuran-4-yloxy]-3-fluoro-pyridine-2-carboxylic acid ethylamide] the same measures were 204%, 350 nM and 189%.
For `CN(C)C(=O)c1ncc(Oc2cc(C(=O)Nc3ccn(C)n3)cc3c2CC(C)(C)O3)cc1F` [Example 178, 5-[2,2-Dimethyl-6-(1-methyl-1H-pyrazol-3-ylcarbamoyl)-2,3-dihydro-benzofuran-4-yloxy]-3-fluoro-pyridine-2-carboxylic acid dimethylamide] the same measures were 198%, 90 nM and 147%.
Take `Cn1ccc(NC(=O)c2cc(Oc3ccc(C(=O)O)nc3)c3c(c2)OC(C)(C)C3)n1` [Example 180, 5-[2,2-Dimethyl-6-(1-methyl-1H-pyrazol-3-ylcarbamoyl)-2,3-dihydro-benzofuran-4-yloxy]-pyridine-2-carboxylic acid]: the activation at 10 µM is 66.5% and the EC50 is > 10000 nM.
